Drawing on ChEMBL document CHEMBL5291721, “A preclinical secondary pharmacology resource illuminates target-adverse drug reaction associations of marketed drugs” (Nat Commun, 2023), this text covers AC50 for twelve molecules.

For assay [1], the target named is T1, Gastrin/cholecystokinin type B receptor (Homo sapiens, UniProt P32239).
T1 sequence (P32239 whole entry): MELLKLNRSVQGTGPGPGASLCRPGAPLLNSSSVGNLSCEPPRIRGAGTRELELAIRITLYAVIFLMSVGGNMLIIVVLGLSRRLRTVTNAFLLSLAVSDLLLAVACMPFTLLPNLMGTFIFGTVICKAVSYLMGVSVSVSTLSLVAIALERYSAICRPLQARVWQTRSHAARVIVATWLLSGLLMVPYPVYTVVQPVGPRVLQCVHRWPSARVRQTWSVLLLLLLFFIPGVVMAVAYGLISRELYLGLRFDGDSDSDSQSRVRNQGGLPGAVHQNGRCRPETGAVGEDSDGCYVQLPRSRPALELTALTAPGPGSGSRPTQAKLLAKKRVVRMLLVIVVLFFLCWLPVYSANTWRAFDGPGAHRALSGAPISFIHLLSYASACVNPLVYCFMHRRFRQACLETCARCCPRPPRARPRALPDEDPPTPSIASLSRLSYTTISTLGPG

In another assay the target is Vasopressin V1a receptor (Homo sapiens, UniProt P37288).
Vasopressin V1a receptor, sequence (P37288 whole entry): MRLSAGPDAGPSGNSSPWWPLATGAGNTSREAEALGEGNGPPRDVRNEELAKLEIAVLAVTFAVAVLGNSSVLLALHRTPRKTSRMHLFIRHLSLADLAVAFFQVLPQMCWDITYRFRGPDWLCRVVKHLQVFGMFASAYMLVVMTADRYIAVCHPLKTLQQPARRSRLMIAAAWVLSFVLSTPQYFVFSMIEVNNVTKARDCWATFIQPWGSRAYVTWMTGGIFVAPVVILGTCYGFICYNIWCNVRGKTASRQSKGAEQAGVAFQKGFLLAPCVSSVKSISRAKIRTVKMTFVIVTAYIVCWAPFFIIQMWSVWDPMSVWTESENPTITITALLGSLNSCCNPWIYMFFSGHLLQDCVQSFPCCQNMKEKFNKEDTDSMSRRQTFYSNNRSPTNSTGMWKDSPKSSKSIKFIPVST
For assay [2], the target named is T2, Prostaglandin G/H synthase 1 (Rattus norvegicus, UniProt Q63921).
T2 sequence (Q63921 whole entry): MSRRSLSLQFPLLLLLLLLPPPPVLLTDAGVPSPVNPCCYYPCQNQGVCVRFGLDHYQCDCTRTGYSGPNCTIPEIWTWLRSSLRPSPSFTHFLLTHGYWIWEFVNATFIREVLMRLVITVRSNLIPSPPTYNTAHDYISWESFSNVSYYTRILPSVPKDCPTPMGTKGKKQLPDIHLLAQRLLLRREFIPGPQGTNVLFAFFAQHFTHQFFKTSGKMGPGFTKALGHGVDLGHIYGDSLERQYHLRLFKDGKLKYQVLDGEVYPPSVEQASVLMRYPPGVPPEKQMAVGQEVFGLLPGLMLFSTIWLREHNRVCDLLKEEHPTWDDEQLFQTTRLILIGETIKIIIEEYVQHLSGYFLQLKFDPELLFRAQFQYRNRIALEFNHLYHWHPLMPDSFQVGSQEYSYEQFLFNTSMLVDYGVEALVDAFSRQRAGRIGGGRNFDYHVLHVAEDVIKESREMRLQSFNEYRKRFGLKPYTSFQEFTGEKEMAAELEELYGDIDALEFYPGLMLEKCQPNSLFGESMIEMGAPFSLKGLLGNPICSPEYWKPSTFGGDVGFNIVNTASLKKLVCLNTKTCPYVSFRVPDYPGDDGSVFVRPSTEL
In kind it is functional.

Assay [3] deals with 3',5'-cyclic-AMP phosphodiesterase 4D (Homo sapiens, UniProt Q08499). The class given is functional.
3',5'-cyclic-AMP phosphodiesterase 4D, sequence (Q08499 whole entry): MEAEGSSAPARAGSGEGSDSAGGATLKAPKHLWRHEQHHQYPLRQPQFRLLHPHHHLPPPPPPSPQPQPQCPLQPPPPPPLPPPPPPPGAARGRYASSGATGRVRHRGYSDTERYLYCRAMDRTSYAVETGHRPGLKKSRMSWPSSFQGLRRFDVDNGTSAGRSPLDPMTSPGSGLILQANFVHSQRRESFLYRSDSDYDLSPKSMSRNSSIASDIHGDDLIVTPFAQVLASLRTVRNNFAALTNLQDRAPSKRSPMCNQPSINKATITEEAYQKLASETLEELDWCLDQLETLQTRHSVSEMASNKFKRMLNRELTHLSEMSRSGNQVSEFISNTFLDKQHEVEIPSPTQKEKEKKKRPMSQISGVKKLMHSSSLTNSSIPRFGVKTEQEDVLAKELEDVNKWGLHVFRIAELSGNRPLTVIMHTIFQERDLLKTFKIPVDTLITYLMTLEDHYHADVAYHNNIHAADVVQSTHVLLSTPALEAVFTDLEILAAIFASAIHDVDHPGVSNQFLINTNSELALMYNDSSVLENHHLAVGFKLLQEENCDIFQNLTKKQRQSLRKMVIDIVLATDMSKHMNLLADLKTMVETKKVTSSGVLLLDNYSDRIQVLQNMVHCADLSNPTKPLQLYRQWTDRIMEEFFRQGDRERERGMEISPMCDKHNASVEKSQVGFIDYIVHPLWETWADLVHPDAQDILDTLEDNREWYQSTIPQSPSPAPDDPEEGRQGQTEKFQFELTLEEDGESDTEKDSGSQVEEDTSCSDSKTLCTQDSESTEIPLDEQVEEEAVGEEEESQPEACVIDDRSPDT
Another assay has as its target T3, Adenosine receptor A1 (Homo sapiens, UniProt P30542).
T3 sequence (P30542 whole entry): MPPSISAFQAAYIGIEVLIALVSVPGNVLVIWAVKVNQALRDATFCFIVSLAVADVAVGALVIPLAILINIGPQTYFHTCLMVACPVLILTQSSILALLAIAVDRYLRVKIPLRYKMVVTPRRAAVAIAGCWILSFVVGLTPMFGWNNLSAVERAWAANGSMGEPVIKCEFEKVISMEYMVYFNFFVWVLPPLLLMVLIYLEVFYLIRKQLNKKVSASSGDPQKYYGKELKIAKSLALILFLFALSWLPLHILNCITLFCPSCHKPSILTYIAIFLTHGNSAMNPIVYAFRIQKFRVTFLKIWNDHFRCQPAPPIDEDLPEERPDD

The next assay has as its target T4, Progesterone receptor (Homo sapiens, UniProt P06401).
T4 sequence (P06401 whole entry): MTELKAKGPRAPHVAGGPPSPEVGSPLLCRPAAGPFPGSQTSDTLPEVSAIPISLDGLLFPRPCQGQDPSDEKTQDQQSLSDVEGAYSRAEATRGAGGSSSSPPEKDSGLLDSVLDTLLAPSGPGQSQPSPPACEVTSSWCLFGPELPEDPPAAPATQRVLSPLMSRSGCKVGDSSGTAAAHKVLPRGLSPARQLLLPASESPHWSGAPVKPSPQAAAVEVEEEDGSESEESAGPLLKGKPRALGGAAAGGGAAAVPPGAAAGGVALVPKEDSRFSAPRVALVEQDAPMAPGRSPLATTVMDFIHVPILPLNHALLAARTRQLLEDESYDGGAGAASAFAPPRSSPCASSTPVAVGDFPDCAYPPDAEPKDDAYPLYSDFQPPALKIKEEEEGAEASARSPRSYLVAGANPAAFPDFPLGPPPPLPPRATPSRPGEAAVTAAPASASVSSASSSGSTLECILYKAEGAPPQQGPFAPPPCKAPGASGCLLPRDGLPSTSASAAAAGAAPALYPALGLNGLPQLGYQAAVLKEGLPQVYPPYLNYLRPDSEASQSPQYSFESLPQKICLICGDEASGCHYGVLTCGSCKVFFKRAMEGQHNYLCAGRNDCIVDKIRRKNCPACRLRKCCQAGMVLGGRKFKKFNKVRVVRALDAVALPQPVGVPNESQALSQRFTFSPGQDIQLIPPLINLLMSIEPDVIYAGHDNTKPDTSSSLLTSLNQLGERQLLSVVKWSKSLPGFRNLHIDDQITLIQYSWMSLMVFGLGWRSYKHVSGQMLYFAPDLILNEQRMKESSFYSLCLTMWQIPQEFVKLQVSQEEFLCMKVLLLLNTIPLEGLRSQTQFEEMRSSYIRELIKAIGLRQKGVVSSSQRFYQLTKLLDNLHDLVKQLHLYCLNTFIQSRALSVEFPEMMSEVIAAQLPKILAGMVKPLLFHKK
The class given is functional.

For assay [4], the target named is T5, Muscarinic acetylcholine receptor M2 (Homo sapiens, UniProt P08172).
T5 sequence (P08172 whole entry): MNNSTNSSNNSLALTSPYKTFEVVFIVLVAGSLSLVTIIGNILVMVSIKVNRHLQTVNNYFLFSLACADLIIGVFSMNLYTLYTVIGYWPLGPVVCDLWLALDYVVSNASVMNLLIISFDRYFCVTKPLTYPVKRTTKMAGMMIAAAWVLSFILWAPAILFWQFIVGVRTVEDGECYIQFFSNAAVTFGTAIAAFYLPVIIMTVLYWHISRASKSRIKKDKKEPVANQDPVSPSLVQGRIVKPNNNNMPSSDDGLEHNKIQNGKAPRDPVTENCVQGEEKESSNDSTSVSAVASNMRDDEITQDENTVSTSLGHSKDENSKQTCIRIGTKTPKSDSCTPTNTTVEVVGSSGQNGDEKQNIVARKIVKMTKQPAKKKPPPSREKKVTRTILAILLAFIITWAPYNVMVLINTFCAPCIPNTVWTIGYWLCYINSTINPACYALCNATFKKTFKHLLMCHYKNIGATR
In kind it is functional, cell-based.

For the next assay, the target named is Melanocortin receptor 3 (Homo sapiens, UniProt P41968).
Melanocortin receptor 3, sequence (P41968 whole entry): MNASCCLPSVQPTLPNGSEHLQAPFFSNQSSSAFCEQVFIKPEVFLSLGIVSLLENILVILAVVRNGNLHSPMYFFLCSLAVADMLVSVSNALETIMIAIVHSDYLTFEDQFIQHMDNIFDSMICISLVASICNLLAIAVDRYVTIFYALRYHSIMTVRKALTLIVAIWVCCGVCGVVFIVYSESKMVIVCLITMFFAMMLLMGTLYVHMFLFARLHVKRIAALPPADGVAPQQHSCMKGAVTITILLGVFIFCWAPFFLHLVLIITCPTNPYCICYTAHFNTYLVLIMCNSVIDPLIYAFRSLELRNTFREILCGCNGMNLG

Molecules are shown by their SMILES.
Also: assay procedure not described here.

Turning to `CC(C)CN(C[C@@H](O)[C@H](Cc1ccccc1)NC(=O)O[C@H]1CCOC1)S(=O)(=O)c1ccc(N)cc1`, the AC50 (commonly the concentration at which the activity in the assay is half-maximal) in assay [1] is greater than 30 µM; on Vasopressin V1a receptor, greater than 30 µM; in assay [2] it was greater than 10 µM; in assay [3], greater than 30 µM; on Adenosine receptor A1 it was greater than 30 µM; on Progesterone receptor, greater than 10 µM. Further, the results for the AC50 (in assay [4]; at Melanocortin receptor 3) were greater than 10 µM and greater than 30 µM, respectively.

As to `O=C(O)c1ccc2nc(-c3cc(Cl)cc(Cl)c3)oc2c1`, the AC50 in assay [1] is greater than 10 µM; on Vasopressin V1a receptor, greater than 30 µM; in assay [2] it was greater than 30 µM; in assay [3], 10.3 µM; on Adenosine receptor A1 it was greater than 30 µM; on Progesterone receptor, greater than 30 µM. Besides, the AC50 (in assay [4]; on Melanocortin receptor 3) was greater than 30 µM in each case.

As to `CNCCc1ccccn1` [BETAHISTINE], the AC50 (in assay [1]; in assay [2]; in assay [3]; at Adenosine receptor A1; at Progesterone receptor; in assay [4]) was greater than 30 µM throughout. At Melanocortin receptor 3, this molecule gave an AC50 greater than 30 µM.

With `CCCCOC(=O)c1ccc(N)cc1` [BUTAMBEN], the half-maximal activity concentration (AC50) was greater than 30 µM in assay [1]; 0.6 µM in assay [2]; 26 µM in assay [3]; greater than 30 µM at Adenosine receptor A1; greater than 30 µM at Progesterone receptor; greater than 30 µM in assay [4]. The molecule also showed an AC50 on Melanocortin receptor 3 greater than 30 µM.

As for `CN(C)CCOC(=O)C(c1ccccc1)C1(O)CCCC1` (stereo unspecified) [CYCLOPENTOLATE], the AC50 was greater than 10 µM on Vasopressin V1a receptor; greater than 10 µM in assay [2]; greater than 30 µM in assay [3]; greater than 10 µM at Adenosine receptor A1; greater than 10 µM on Progesterone receptor; 0.29 µM in assay [4]. Also, on Melanocortin receptor 3, the half-maximal activity concentration (AC50) is greater than 10 µM.

As to `CCc1ccc(C(=O)C(C)CN2CCCCC2)cc1` (stereo unspecified) [EPERISONE], the concentration at half-maximal activity (AC50) in assay [1] is greater than 30 µM; in assay [2], greater than 30 µM; in assay [3], greater than 30 µM; at Adenosine receptor A1 it was greater than 30 µM; at Progesterone receptor, greater than 30 µM; in assay [4], 2.2 µM. The AC50 on Melanocortin receptor 3 is greater than 30 µM.

As to `CN1CCC(=C2c3ccccc3CC(=O)c3sccc32)CC1` [KETOTIFEN], the AC50 is greater than 10 µM on Vasopressin V1a receptor; greater than 10 µM in assay [2]; greater than 30 µM in assay [3]; greater than 10 µM on Adenosine receptor A1; greater than 10 µM on Progesterone receptor; 1.9 µM in assay [4]. Also, the half-maximal activity concentration (AC50) at Melanocortin receptor 3 is greater than 10 µM.

For `O=C(C[S+]([O-])Cc1ccco1)NC/C=C\COc1cc(CN2CCCCC2)ccn1` (stereo unspecified) [LAFUTIDINE], the AC50 was greater than 10 µM on Vasopressin V1a receptor; greater than 10 µM in assay [2]; greater than 30 µM in assay [3]; greater than 10 µM on Adenosine receptor A1; greater than 10 µM on Progesterone receptor; greater than 10 µM in assay [4]. Moreover, on Melanocortin receptor 3, the AC50 was greater than 10 µM.

Take `CCC1(CC)C(=O)NC(=O)N(C)C1=O` [METHARBITAL]: the AC50 is greater than 10 µM on Vasopressin V1a receptor; greater than 10 µM in assay [2]; greater than 30 µM in assay [3]; greater than 10 µM at Adenosine receptor A1; greater than 10 µM at Progesterone receptor; greater than 10 µM in assay [4]. The AC50 on Melanocortin receptor 3 was greater than 10 µM.

Regarding `COc1nc(C)nc(Cl)c1N=C1NCCN1` [MOXONIDINE], the AC50 (in assay [1]; in assay [2]; in assay [3]; on Adenosine receptor A1; on Progesterone receptor; in assay [4]) was greater than 30 µM throughout. Besides, the AC50 on Melanocortin receptor 3 is greater than 30 µM.

Turning to `CC(C(=O)O)c1ccc(C(=O)c2ccccc2)s1` (stereo unspecified) [TIAPROFENIC ACID], the AC50 on Vasopressin V1a receptor was greater than 10 µM; in assay [2], 0.365 µM; in assay [3] it was greater than 30 µM; on Adenosine receptor A1, greater than 10 µM; at Progesterone receptor it was greater than 10 µM; in assay [4], greater than 10 µM. This molecule also had an AC50 at Melanocortin receptor 3 greater than 10 µM.

Consider `CCN(C(C)=O)c1cccc(-c2ccnc3c(C#N)cnn23)c1` [ZALEPLON], for which the AC50 in assay [1] is greater than 30 µM; in assay [2], greater than 30 µM; in assay [3] it was greater than 30 µM; at Adenosine receptor A1 it was greater than 30 µM; at Progesterone receptor, greater than 30 µM; in assay [4] it was greater than 10 µM. At Melanocortin receptor 3, this molecule returned an AC50 greater than 30 µM.
